Several values for one entry are separate records, joined by “and”; a condition that tells them apart may be missing. Identical values can stand only once.
CN(C)C=O
Settings | viscosity
293.15 K, 100 kPa | 0.855 mPa·s
293.15 K, 101.33 kPa | 0.9248 mPa·s and 0.88 mPa·s
298.15 K, 100 kPa | 0.82 mPa·s and 0.843 mPa·s
298.15 K, 101.3 kPa | 0.792 mPa·s
298.15 K, 101.33 kPa | 0.83 mPa·s
302.15 K, 101 kPa | 1.032 mPa·s
303 K, 101.33 kPa | 0.758 mPa·s
303.15 K, 101.3 kPa | 0.7675 mPa·s and 0.7524 mPa·s
303.15 K, 101.33 kPa | 0.78 mPa·s
305.15 K, 101 kPa | 0.979 mPa·s
308 K, 101.33 kPa | 0.721 mPa·s
308.15 K, 100 kPa | 0.729 mPa·s and 0.718 mPa·s
308.15 K, 101.3 kPa | 0.7077 mPa·s
308.15 K, 101.33 kPa | 0.74 mPa·s
313.15 K, 100 kPa | 0.687 mPa·s and 0.688 mPa·s
313.15 K, 101.3 kPa | 0.6644 mPa·s
313.15 K, 101.33 kPa | 0.7143 mPa·s and 0.7 mPa·s
318 K, 101.3 kPa | 0.6348 mPa·s
318 K, 101.33 kPa | 0.6348 mPa·s
318.15 K, 100 kPa | 0.652 mPa·s
318.15 K, 101.33 kPa | 0.67 mPa·s
323.15 K, 101.33 kPa | 0.63 mPa·s

COCC(C)O (centres undefined)
viscosity
Settings | 298.15 K | 303.15 K | 308.15 K | 313.15 K | 318.15 K
101 kPa | 1.55 mPa·s | 1.3 mPa·s | 1.22 mPa·s | 1.11 mPa·s | 1.04 mPa·s
101.33 kPa | 1.671 mPa·s and 1.723 mPa·s and 1.694 mPa·s | – | 1.374 mPa·s and 1.329 mPa·s | – | 1.09 mPa·s and 1.078 mPa·s

CC12CC3CC(C)(C1)CC(C)(C3)C2
100 kPa
Settings | viscosity
293.15 K | 2.641 mPa·s and 2.61 mPa·s
298.15 K | 2.376 mPa·s and 2.35 mPa·s
303.15 K | 2.147 mPa·s
308.15 K | 1.951 mPa·s
313.15 K | 1.781 mPa·s and 1.76 mPa·s
318.15 K | 1.633 mPa·s
323.15 K | 1.502 mPa·s

c1ccccc1
Settings | viscosity
293.15 K, 100 kPa | 0.641 mPa·s and 0.656 mPa·s
293.15 K, 101 kPa | 0.644 mPa·s and 0.629 mPa·s and 0.646 mPa·s
293.15 K, 101.33 kPa | 0.645 mPa·s and 0.645 mPa·s
293.16 K, 101 kPa | 0.652 mPa·s
294.35 K, 101.33 kPa | 0.6559 mPa·s
298 K, 101 kPa | 0.6139 mPa·s
298 K, 101.33 kPa | 0.596 mPa·s
298.15 K, 100 kPa | 0.6121 mPa·s
298.15 K, 101.3 kPa | 0.609 mPa·s
303.15 K, 101.32 kPa | 0.576 mPa·s
303.95 K, 101.33 kPa | 0.5989 mPa·s
304.85 K, 101.33 kPa | 0.5927 mPa·s
307.35 K, 101.33 kPa | 0.53 mPa·s
307.4 K, 101.33 kPa | 0.309 mPa·s
312.95 K, 101.33 kPa | 0.5173 mPa·s
313 K, 101 kPa | 0.4925 mPa·s and 0.4923 mPa·s and 0.4923 mPa·s
313 K, 101.33 kPa | 0.489 mPa·s
313.15 K, 100 kPa | 0.491 mPa·s
313.25 K, 101.33 kPa | 0.5324 mPa·s
318 K, 101 kPa | 0.4788 mPa·s
318 K, 101.3 kPa | 0.4765 mPa·s
318.15 K, 101.33 kPa | 0.553 mPa·s and 0.553 mPa·s
322.75 K, 101.33 kPa | 0.4749 mPa·s
322.85 K, 101.33 kPa | 0.4803 mPa·s
323.15 K, 100 kPa | 0.435 mPa·s
323.15 K, 101 kPa | 0.438 mPa·s and 0.4367 mPa·s and 0.434 mPa·s

CCI
Settings | viscosity [mPa·s]
298.15 K, 101 kPa | 0.577

CCCCCCCCCCCCCC[P+](CCCCCC)(CCCCCC)CCCCCC.N#C[N-]C#N
viscosity [mPa·s]
Settings | 293.15 K | 298.15 K | 303.15 K | 308.15 K | 313.15 K | 318.15 K | 323.15 K
100 kPa | 603 | 442 | 331 | 253 | 196 | 155 | 124
101 kPa | – | 440 | 328 | – | 196 | – | 123

CCCCCO
Settings | viscosity
293.15 K, 100 kPa | 4.057 mPa·s and 4.155 mPa·s and 3.964 mPa·s
293.15 K, 101 kPa | 3.939 mPa·s and 3.99 mPa·s and 4.06 mPa·s
293.15 K, 101.33 kPa | 3.675 mPa·s and 4.109 mPa·s and 4.109 mPa·s
298.15 K, 100 kPa | 3.512 mPa·s and 3.595 mPa·s
298.15 K, 101.3 kPa | 3.302 mPa·s
303.15 K, 101.3 kPa | 3 mPa·s and 2.832 mPa·s
308.15 K, 101.3 kPa | 2.449 mPa·s
313.15 K, 101.3 kPa | 2.3 mPa·s and 2.344 mPa·s
318 K, 101.3 kPa | 2.075 mPa·s
318.15 K, 100 kPa | 2.085 mPa·s
318.15 K, 101.3 kPa | 2.066 mPa·s
323 K, 101.3 kPa | 1.853 mPa·s
323.15 K, 101 kPa | 1.784 mPa·s

CCCCCCCCCCCCCCCCCCC
Settings | viscosity [mPa·s]
313.15 K, 101 kPa | 3.49

Cc1ccnc(C)c1
101 kPa
Settings | viscosity
303 K | 0.7893 mPa·s and 0.7892 mPa·s
313 K | 0.6863 mPa·s and 0.686 mPa·s
323 K | 0.6133 mPa·s and 0.6129 mPa·s

C1CCC2CCCCC2C1 (centres undefined)
viscosity
Settings | 293.15 K | 298.15 K | 303.15 K | 308.15 K | 313.15 K | 318.15 K | 323.15 K
100 kPa | 2.507 mPa·s | 2.272 mPa·s | 2.07 mPa·s | – | 1.741 mPa·s | – | 1.457 mPa·s
101 kPa | 2.453 mPa·s | 2.223 mPa·s and 2.171 mPa·s | 2.026 mPa·s | 1.854 mPa·s | 1.703 mPa·s | 1.571 mPa·s | 1.454 mPa·s

Source: the CheMixHub viscosity set
